From the supplement of paper PMC13380429

How the values were obtained:
Conditions in all cases: 72 h
Caco-2 [1] = test: cell viability relative to DMSO; higher = less toxic
Calu-3 [2] = test: as above
HepG2 [3] = test: as above
U2OS [4] = test: as above
Vero E6 [5] = test: as above
Caco-2 [6] = test: relative viability EC50 (midpoint between 100% and the lowest measured viability); higher = less toxic
Calu-3 [7] = test: as above
HepG2 [8] = test: as above
U2OS [9] = test: as above
Vero E6 [10] = test: as above
Caco-2 [11] = test: drug sensitivity score (DSS) for viability; higher = more toxic; extreme values may be limits of the assay
Calu-3 [12] = test: as above
HepG2 [13] = test: as above
U2OS [14] = test: as above
Vero E6 [15] = test: as above

| SMILES | cell viability (Caco-2 [1]; 1 nM) | cell viability (Caco-2 [1]; 10 nM) | cell viability (Caco-2 [1]; 100 nM) | cell viability (Caco-2 [1]; 1000 nM) | cell viability (Caco-2 [1]; 10000 nM) | cell viability (Calu-3 [2]; 1 nM) | cell viability (Calu-3 [2]; 10 nM) | cell viability (Calu-3 [2]; 100 nM) | cell viability (Calu-3 [2]; 1000 nM) | cell viability (Calu-3 [2]; 10000 nM) | cell viability (HepG2 [3]; 1 nM) | cell viability (HepG2 [3]; 10 nM) | cell viability (HepG2 [3]; 100 nM) | cell viability (HepG2 [3]; 1000 nM) | cell viability (HepG2 [3]; 10000 nM) | cell viability (U2OS [4]; 1 nM) | cell viability (U2OS [4]; 10 nM) | cell viability (U2OS [4]; 100 nM) | cell viability (U2OS [4]; 1000 nM) | cell viability (U2OS [4]; 10000 nM) | cell viability (Vero E6 [5]; 1 nM) | cell viability (Vero E6 [5]; 10 nM) | cell viability (Vero E6 [5]; 100 nM) | cell viability (Vero E6 [5]; 1000 nM) | cell viability (Vero E6 [5]; 10000 nM) | relative viability EC50 (Caco-2 [6]) | relative viability EC50 (Calu-3 [7]) | relative viability EC50 (HepG2 [8]) | relative viability EC50 (U2OS [9]) | relative viability EC50 (Vero E6 [10]) | drug sensitivity score (Caco-2 [11]) | drug sensitivity score (Calu-3 [12]) | drug sensitivity score (HepG2 [13]) | drug sensitivity score (U2OS [14]) | drug sensitivity score (Vero E6 [15]) |
| --- | --- | --- | --- | --- | --- | --- | --- | --- | --- | --- | --- | --- | --- | --- | --- | --- | --- | --- | --- | --- | --- | --- | --- | --- | --- | --- | --- | --- | --- | --- | --- | --- | --- | --- | --- |
| Nc1ccn([C@H]2CC[C@@H](CO)O2)c(=O)n1 [zalcitabine] | 94.2% | 99.2% | 90.6% | 93.5% | 98.7% | 99.2% | 91.1% | 103% | 101% | 106% | 101% | 93.1% | 98.3% | 94.8% | 98.9% | 101% | 105% | 94.2% | 97.2% | 99.1% | 102% | 104% | 100% | 99.1% | 90.9% | > 10 µM | > 10 µM | > 10 µM | > 10 µM | > 10 µM | 0 | 0 | 0 | 0 | 0 |
| NC(=O)Cc1cccc(C(=O)c2ccccc2)c1N [nepafenac] | 96.6% | 94.9% | 90.7% | 102% | 90.7% | 101% | 97.9% | 95.6% | 95.3% | 97.9% | 116% | 94.8% | 100% | 99.9% | 105% | 99.5% | 102% | 94.5% | 98.8% | 93.5% | 106% | 104% | 106% | 99.3% | 102% | > 10 µM | > 10 µM | > 10 µM | > 10 µM | > 10 µM | 0 | 0 | 0 | 0 | 0 |
| COCCOc1ccc(N2CCN(CCn3ncc4c3nc(N)n3nc(-c5ccco5)nc43)CC2)cc1 [preladenant] | 98.1% | 99% | 98.1% | 91.8% | 93.1% | 106% | 112% | 97.2% | 92.3% | 107% | 97% | 105% | 94% | 99.6% | 93.2% | 97.6% | 101% | 95.3% | 95.1% | 96.9% | 91.2% | 99.5% | 97.7% | 102% | 99.6% | > 10 µM | > 10 µM | > 10 µM | > 10 µM | > 10 µM | 0 | 0 | 0 | 0 | 0 |
| O=C(Nc1ccc(F)cc1)N1CCc2ccccc2[C@@H]1c1ccc(C(F)(F)F)cc1 [TC-I-2000] | 102% | 103% | 95.9% | 98.7% | 93.3% | 107% | 98.3% | 94.6% | 99% | 97.4% | 93.6% | 109% | 99.5% | 101% | 94.2% | 98.7% | 99.2% | 102% | 99.8% | 102% | 108% | 101% | 102% | 103% | 89.7% | > 10 µM | > 10 µM | > 10 µM | > 10 µM | > 10 µM | 0 | 0 | 0 | 0 | 0 |
| C[C@H](C[C@H](N)C(=O)O)C(=O)O [SYM-2081] | 103% | 96% | 105% | 97.5% | 98.4% | 102% | 88.4% | 96.6% | 95.3% | 102% | 104% | 88.4% | 91.9% | 96.6% | 93.8% | 100% | 97.5% | 100% | 97.7% | 106% | 101% | 102% | 95.1% | 104% | 93.4% | > 10 µM | > 10 µM | > 10 µM | > 10 µM | > 10 µM | 0 | 0 | 0 | 0 | 0 |
| COc1c(C)cnc(Cn2cc(C#CCC(C)(C)O)c3c(Cl)nc(N)nc32)c1C [EC-144] | 105% | 97.3% | 88.8% | 33.1% | 39.9% | 104% | 108% | 84.3% | 39.4% | 49.5% | 96.4% | 103% | 32.3% | 1.2% | 1.3% | 110% | 107% | 94.5% | 9.2% | 3.5% | 99.3% | 102% | 105% | 37.3% | 32.8% | 0.189 µM | 0.152 µM | 0.0735 µM | 0.319 µM | 0.413 µM | 14.2 | 13.6 | 25.6 | 17.3 | 11.3 |
| CC(C)(CO)c1cc2cc(NC(=O)C3(c4ccc5c(c4)OC(F)(F)O5)CC3)c(F)cc2n1C[C@@H](O)CO [tezacaftor] | 101% | 98.1% | 96.3% | 89.1% | 98.8% | 101% | 96.8% | 104% | 104% | 106% | 113% | 102% | 94.1% | 97.2% | 96.3% | 99.2% | 96.7% | 101% | 97.7% | 93.2% | 90.3% | 98.2% | 92.4% | 94.6% | 93.1% | > 10 µM | > 10 µM | > 10 µM | > 10 µM | > 10 µM | 0 | 0 | 0 | 0 | 0 |
| Nc1ncnc2c1ncn2[C@@H]1O[C@H](CO)C[C@H]1O [cordycepin] | 93.9% | 99% | 95.2% | 97.5% | 103% | 94.6% | 98.6% | 86.1% | 92.5% | 101% | 95.3% | 98.9% | 104% | 97.4% | 114% | 95.7% | 99.3% | 95% | 105% | 110% | 96.6% | 97% | 96.2% | 98.1% | 103% | > 10 µM | > 10 µM | > 10 µM | > 10 µM | > 10 µM | 0 | 0 | 0 | 0 | 0 |
| O=C1c2ccccc2C(Cc2ccncc2)(Cc2ccncc2)c2ccccc21 [XE-991] | 100% | 94.1% | 97.5% | 93.8% | 89.2% | 108% | 87.7% | 108% | 91.2% | 99.8% | 97.8% | 97.6% | 97.6% | 96.3% | 89.1% | 103% | 98.8% | 100% | 96.5% | 100% | 94.5% | 101% | 98.8% | 93.3% | 91.1% | > 10 µM | > 10 µM | > 10 µM | > 10 µM | > 10 µM | 0 | 0 | 0 | 0 | 0 |
| C[C@@H]1CN(Cc2ncccn2)C[C@H]1c1nc2c(cnn2C2CCOCC2)c(=O)[nH]1 | 94.4% | 92.4% | 96% | 94.7% | 107% | 98.5% | 100% | 105% | 111% | 93.7% | 99.2% | 94% | 100% | 96.5% | 107% | 98.2% | 102% | 102% | 103% | 99.9% | 93.6% | 97.7% | 93.7% | 96% | 103% | > 10 µM | > 10 µM | > 10 µM | > 10 µM | > 10 µM | 0 | 0 | 0 | 0 | 0 |
| CC(C)(C)NC[C@H](O)COc1nsnc1N1CCOCC1 [timolol] | 98.1% | 102% | 97% | 96.9% | 113% | 99.8% | 94.5% | 101% | 100% | 98.1% | 94.9% | 90% | 97.1% | 96.5% | 94.5% | 96.6% | 102% | 94.4% | 95.3% | 96.9% | 94.5% | 96.9% | 106% | 99.3% | 104% | > 10 µM | > 10 µM | > 10 µM | > 10 µM | > 10 µM | 0 | 0 | 0 | 0 | 0 |
| Cc1cccc(Nc2ccccc2C(=O)O)c1C [mefenamic-acid] | 97.5% | 101% | 97.1% | 96.4% | 99.3% | 89.9% | 96.4% | 97.7% | 98.9% | 97.6% | 101% | 94.4% | 100% | 97.4% | 91.4% | 106% | 97% | 101% | 97.1% | 101% | 106% | 108% | 100% | 104% | 92% | > 10 µM | > 10 µM | > 10 µM | > 10 µM | > 10 µM | 0 | 0 | 0 | 0 | 0 |
| CN[C@@H]1[C@@H](O)[C@@H](O[C@@H]2[C@@H](O)[C@H](O[C@H]3O[C@H](CN)[C@@H](O)[C@H](O)[C@H]3O)[C@@H](N)C[C@H]2NC(=O)[C@@H](O)CN)OC[C@]1(C)O [isepamicin] | 89.7% | 97% | 89.1% | 98% | 91.8% | 96.4% | 90.7% | 91.5% | 92.6% | 99.3% | 98.8% | 95.8% | 96.6% | 107% | 103% | 97.6% | 100% | 94.6% | 99.1% | 102% | 91.5% | 98.3% | 96.6% | 95.5% | 101% | > 10 µM | > 10 µM | > 10 µM | > 10 µM | > 10 µM | 0 | 0 | 0 | 0 | 0 |
| CC[C@@H](CO)NC(=O)[C@@H]1C=C2c3cccc4[nH]cc(c34)C[C@H]2N(C)C1 [methylergometrine] | 97.6% | 98% | 96.2% | 96.7% | 99.5% | 96.9% | 98.3% | 99.4% | 86.2% | 91.2% | 98.6% | 102% | 97.5% | 110% | 93.6% | 96.2% | 99.1% | 102% | 98.5% | 104% | 106% | 101% | 100% | 102% | 99.8% | > 10 µM | > 10 µM | > 10 µM | > 10 µM | > 10 µM | 0 | 1.1 | 0 | 0 | 0 |
